Data as given in patent US11040052B2, “Methods and pharmaceutical compositions for modulating autophagy in a subject in need thereof” (INSERM (INSTITUT NATIONAL DE LA SANTE ET DE LA RECHERCHE …, priority 2013, dated 2021).
“Also recorded” adds a separate entry of the source.

Assays:
EP300 = experiment: Acetylation of EP300 K1499 in starved cells; format: cell-based; conditions: nutrient-free conditions
cellular ATP levels = experiment: Cellular ATP levels; format: cell-based
[1] = test system: cytoplasmic protein acetylation; experiment: Immunofluorescence of cytoplasmic acetyl-lysine-containing proteins; format: cell-based, human; conditions: for cytoplasmic protein acetylation in starved cells: nutrient-depleted (starved) cells in vitro; for cytoplasmic protein acetylation: cells kept in rich medium
Protocol: Cells were fixed with 4% PFA for 15 min at room temperature, and permeabilized with 0.1% Triton X-100 for 10 min, except for staining of cytoplasmic acetyl-lysine-containing proteins, in which any permeabilization step further than PFA fixation was avoided. Non-specific binding sites were blocked with 5% bovine serum in PBS, followed by staining with primary antibodies overnight at 4° C. Development was carried out with appropriate AlexaFluor™ conjugates (Molecular Probes-Invitrogen). In the case of cytoplasmic acetyl-lysine staining, an additional step of blocking using anti-acetylated-tubulin antibody (1:200) was applied. Ten μM Hoechst 33342 (Molecular Probes-Invitrogen) was employed for nuclear counterstaining. Fluorescence and confocal fluorescence microscopy assessments were performed on an IRE2 microscope (Lcica Microsystems) equipped with a DC300F camera and with an LSM 510 microscope (Carl Zeiss, Jena, Germany), respectively.
U2OS, HeLa or H4 cells stably expressing GFP-LC3 were seeded in 96-well imaging plates (BD Falcon, Sparks, USA) 24 h before stimulation. Cells were treated with the indicated agents for 4 h. Subsequently, cells were fixed with 4% PFA and counterstained with 10 μM Hoechst 33342. Images were acquired using a BD pathway 855 automated microscope (BD Imaging Systems, San Jose, USA) equipped with a 40× objective (Olympus, Center Valley, USA) coupled to a robotized Twister II plate handler (Caliper Life Sciences, Hopkinton, USA). Images were analyzed for the presence of GFP-LC3 puncta in the cytoplasm by means of the BD Attovision software (BD Imaging Systems). Cell surfaces were segmented and divided into cytoplasmic and nuclear regions according to manufacturer standard proceedings. RB 2×2 and Marr-Hildreth algorithms were used to recognize cytoplasmic GFP-LC3 positive dots. Statistical analyses were implemented on the R software (http://www.r-project.org/). For quantitative analyses of protein acetylation, cell surfaces were segmented into cytoplasm and nuclei regions, and staining intensity of each individual cell was measured for statistical analysis.
Cells were fixed with 4% PFA for 15 min at room temperature, and permeabilized with 0.1% Triton X-100 for 10 min. For cytoplasmic Acetyl Lysine staining, we proceeded as described in 35. Non-specific binding sites were blocked with 5% bovine serum albumin in PBS, followed by incubation with primary antibodies overnight at 4° C. After 1 hour incubation, appropriate Alexa-conjugated Fluorophores (Invitrogen) were used for antigen detection. Ten μM Hoechst 33342 (Molecular Probes-Invitrogen, Eugene, USA) was employed for nuclear counterstaining Fluorescence wide-field and confocal microscopyassessments were performed on an DM IRE2 microscope (Leica Microsystems, Wetzlar, Germany) equipped with a DC300F camera and with an LSM 510 microscope (Carl Zeiss, Jena, Germany), respectively.
U2OS and H4 cells stably expressing GFP-LC3 were seeded in 96-well or 384-well imaging plates (BD Falcon, Sparks, USA). 24 h before stimulation, ells were treated with the indicated agents for 6 hours in absence of lysososomal ATPase inhibitors and for 3 hours in presence of Bafilomycin A1. Subsequently, cells were fixed with 4% PFA and counterstained with 10 μM Hoechst 33342. Images were acquired using a BD pathway 855 automated microscope (BD Imaging Systems, San Jose, USA) equipped with a 40× objective (Olympus, Center Valley, USA) coupled to a robotized Twister II plate handler (Caliper Life Sciences, Hopkinton, USA). […]

[2] = test system: cytoplasts of U2OS cells stably expressing GFP-LC3; experiment: Autophagic flux in cytoplasts (enucleated GFP-LC3 cells); format: cell-based, human; conditions: presence of BafA1, compared with nucleated control cells
Protocol: U2OS cells stably expressing GFP-LC3 were trypsinized and incubated in 3 ml of complete medium supplemented with […] cytochalasin B for 45 min at 37° C. This cell suspension was layered onto a discontinuous Ficoll density gradient (3 mL of 55%, 1 mL of 90%, and 3 mL of 100% Ficoll-Paques; GE Healthcare) in complete medium containing […] cytochalasin B. Gradients were prepared in ultracentrifuge tubes and pre-equilibrated at 37° C. in a CO2 incubator overnight. Gradients containing cell suspensions were centrifugated in a prewarmed rotor (SW41; Beck-man Coulter) at 30,000 g for 30 min at 32° C. The cytoplast-enriched fraction was collected from the interface between 55 and 90% Ficoll layers, washed in complete medium, and incubated for 4 h at 37° C. before treatments.

[3] = test system: turnover of long-lived proteins; experiment: Turnover of long-lived proteins; format: cell-based, human; conditions: for starvation-induced turnover of long-lived proteins: starved cells

SMILES | starvation-induced deacetylation of the K1499 residue in EP300 (EP300) | cellular ATP levels in starved cells (cellular ATP levels) | cytoplasmic protein acetylation in starved cells [1] | autophagic flux in cytoplasts [2] | cytoplasmic protein acetylation [1] | also measured
COC(=O)CCC(=O)C(=O)OC [DMKG, dimethyl-α-ketoglutarate] | could be avoided | induced a decrease in cellular ATP | increased cellular AcCoA levels (E) and cytoplasmic protein acetylation; also recorded: maintained high AcCoA and cytoplasmic acetylation levels |  |  | 
N#CC(=Cc1cn(-c2ccccc2)c2ccccc12)C(=O)O [UK5099, 2-Cyano-3-(1-phenyl-1H-indol-3-yl)-2-propenoic acid] |  |  |  | stimulated autophagy in cytoplasts as efficiently as in nucleated control cells; also recorded: stimulated autophagic flux in cytoplasts as efficiently as in nucleated control cells | reduced both AcCoA levels (A, E) and cytoplasmic protein acetylation; also recorded: deacetylation of cytoplasmic proteins | cellular ATP levels (cellular ATP levels; cells in rich medium): without reducing ATP; autophagy-dependent turnover of long-lived proteins ([3]; cells in rich medium): increased the autophagy-dependent turnover of long-lived proteins
O=C(O)c1cccc(C(=O)O)c1C(=O)O [BTC, 1,2,3-benzenetricarboxylate] |  |  |  | stimulated autophagy in cytoplasts as efficiently as in nucleated control cells; also recorded: stimulated autophagic flux in cytoplasts as efficiently as in nucleated control cells | reduced both AcCoA levels (A) and cytoplasmic protein acetylation; also recorded: protein deacetylation | 
O=C(O)CCCCC1CCSS1 (stereo not drawn) [LA, lipoic acid] | could be avoided | induced a decrease in cellular ATP | increased both cellular AcCoA levels (K) and cytoplasmic protein acetylation; also recorded: maintain high AcCoA and cytoplasmic acetylation levels |  |  | starvation-induced turnover of long-lived proteins [3]: blunted
CC(C)CC(=O)C(=O)O [KIC, ketoisocaproic acid] | could be avoided | induced a decrease in cellular ATP | increase in AcCoA levels (A) and cytoplasmic protein acetylation; also recorded: sufficient to avoid AcCoA depletion and protein deacetylation |  |  | starvation-induced turnover of long-lived proteins [3]: inhibited the starvation-induced increase in autophagic flux and turnover of long-lived proteins
CC(C)C[C@H](N)C(=O)O [leucine] |  |  | sufficient to maintain high AcCoA levels and cytoplasmic protein acetylation |  |  | 
O=C(O)CC(O)(C(=O)O)C(O)C(=O)O (stereo not drawn) [HC, hydroxycitrate] |  |  |  | stimulated autophagy in cytoplasts as efficiently as in nucleated control cells; also recorded: stimulated autophagic flux in cytoplasts as efficiently as in nucleated control cells | reduced both AcCoA levels (E, I) and cytoplasmic protein acetylation; also recorded: induced cytosolic protein deacetylation; also recorded: induced cytoplasmic protein deacetylation | cytoplasmic protein acetylation ([1]; listed as Hydroxycitrate): reduces cytoplasmic; also recorded: reduced cytoplasmic protein acetylation
